Data on 27 compounds can be found in PubChem BioAssay AID463136 (University of Pittsburgh Molecular Library Screening Center, 2010).

Results filed as inconclusive are left out. Active and inactive are the calls of the source. The rule behind the calls is not given here.

The nature of assay [1]: blockers of dynein-driven microtubule transport – imaging, high-content imaging, dose response (AID 463136).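 Note: mouse mammary adenocarcinoma 3617.4 cells expressing GFP-tagged rat glucocorticoid receptor.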 The following applies: HCS imaging, dynein-mediated cargo transport inhibition; inhibition at max concentration; at 50 µM; stronger effect = higher value.
The subject of assay [2] is HCS imaging, dynein-mediated cargo transport inhibition. The description is as above.

Take `C=C1C(=O)[C@@]23[C@H](O)C[C@@H]4C(C)(C)CC[C@H](O)[C@@]4(C)[C@@H]2CC[C@@H]1[C@H]3O`: the inhibition (usually the drop in the measured response relative to a control, in per cent) in assay [1] came out at 87.3%. Also, the IC50 (in general, the point on the concentration scale where inhibition reaches its midpoint) in assay [2] was 6.12 µM.
For `O=C(CCl)Nc1ccc(-c2ccccc2)cc1` the same measures were 66% and 14.3 µM.
For `CCOC(=O)c1c(NC(=S)N2CCCCC2)sc2c1CCN(C(=O)OCC)C2` the same measures were 30.3% and > 50 µM (inactive).
For `Cc1ccc(SC(=O)c2c(C)noc2-c2cc(C)on2)cc1` the same measures were 37.3% and > 50 µM (inactive).
As for `COc1ccc(-n2ncc(Cl)c(Cl)c2=O)cc1`, in assay [1], the inhibition amounted to 84.7%. Further, in assay [2], the IC50 was 21.6 µM.
Regarding `COC(=O)c1cc(=O)n(Cc2cccs2)c(=Nc2ccccc2)s1`, the inhibition in assay [1] came to 32.2%. Further, the IC50 in assay [2] is > 50 µM (inactive).
For `CCSc1nnc(-c2sc3nnc(-c4ccccc4)c(-c4ccccc4)c3c2N)o1` the same measures were 134% and 31.3 µM.
For `CCOC(=O)c1c(NC(=S)N2CCOCC2)sc2c1CCN(C(=O)OCC)C2` the same measures were 74% and 33.2 µM.
Regarding `N#Cc1cccc(N=c2ssnc2Cl)c1`, in assay [1], the inhibition is 14.7%. Moreover, the IC50 in assay [2] is > 50 µM (inactive).
For `Cc1ccc(N(C(=O)CCl)C(C(=O)NC2CCCCC2)c2cccnc2)cc1C` (centres undefined) the same measures were 86.1% and 4.62 µM.
For `Cc1ccc(NC(=O)c2cc(N3C(=O)C=CC3=O)ccc2N2CCOCC2)cc1` the same measures were -6.6% and > 50 µM (inactive).
For `CCSc1nc2ccccc2n1C(=O)/C=C\c1ccc(OC)c(OC)c1` the same measures were 7.37% and > 50 µM (inactive).
On to `COC(=O)[C@@]1(Cc2ccccc2)[C@@H]2C(=CC(=O)[C@H]2CC(=O)C(=O)N(C)C)CN1C(=O)c1ccccc1`, for which, in assay [1], the inhibition was determined as 86.2%. Also, in assay [2], the IC50 is 4.67 µM.
For `Nc1c(C(=O)c2cccs2)sc2nsc(SCCN3CCCCC3)c12` the same measures were 11.4% and > 50 µM (inactive).
For `CC(=O)Oc1ccc(OC(C)=O)c(SCCCCCCl)c1` the same measures were 83.5% and 17.6 µM.
`C[C@@H]1C[C@@H]2O[C@H]2/C=C\C=C\C(=O)Cc2c(Cl)c(O)cc(O)c2C(=O)O1`: the inhibition in assay [1] turned out to be 49.4%. Besides, in assay [2], the IC50 was 0.281 µM.
In the case of `COC(=O)c1cc(=O)n(CCc2ccccc2F)c(=Nc2ccc(F)c(Cl)c2)s1`, the inhibition in assay [1] came to 11.9%. The IC50 in assay [2] is > 50 µM (inactive).
On to `CC(=O)c1sc2nc(-c3cccs3)cc(C(F)(F)F)c2c1N`, for which the inhibition in assay [1] turned out to be 86%. Moreover, in assay [2], the IC50 is 21.6 µM.
For the compound `COc1ccc(/C=C\c2nc(=O)c3ccccc3o2)cc1`, in assay [1], the inhibition turned out to be 86.9%. The half-maximal inhibitory concentration (IC50) in assay [2] is 6.91 µM.
For `Cn1cnc([N+](=O)[O-])c1S(=O)(=O)c1ccc(Cl)cc1` the same measures were 78.2% and 3.72 µM.
On to `N#C/C(=C\c1cccs1)C(=O)c1ccccc1Cl`, for which the inhibition in assay [1] came out at 63.4%. The IC50 in assay [2] is > 50 µM (inactive).
Turning to `CCOc1cc(C=C(C(=O)OC)C(=O)OC)ccc1OCc1ccc([N+](=O)[O-])cc1`, the inhibition in assay [1] is 37.2%. In addition, in assay [2], the IC50 is > 50 µM (inactive).
For `CC1(C)COC(/C=C/c2cccc([N+](=O)[O-])c2)=N1` the same measures were 88.6% and 10 µM.
For `CCN1CCN(C2=C(Cl)C(=O)N(Cc3ccccc3)C2=O)CC1` the same measures were 87.8% and 20.9 µM.
For `N#C/C(=C/c1ccc(N2CCCCC2)o1)C(=O)Nc1ccc(Cl)cc1` the same measures were 97.4% and 40.4 µM.
In the case of `O=c1c(Cl)cc(Cl)nn1-c1ccccc1`, the inhibition in assay [1] is 72.4%. In addition, the concentration for half-maximal inhibition (IC50) in assay [2] was 10.5 µM.
For `O=C1NC(=O)N(c2ccccc2)C(=O)/C1=C\C=C\c1ccccc1` the same measures were 80.9% and 28.8 µM.
